{
  "source": "patent US6355635B1",
  "about": "“Compounds for the treatment of obesity” (Pfizer Inc., priority 1999, dated 2002)",
  "tested_on": "endogenous NPY response",
  "experiment": "Endogenous NPY response in Bowes melanoma host cells",
  "settings": "10 uM; human Bowes melanoma cells (HMCB), low levels of Y1 responses",
  "protocol": "This plasmid construct is used along with calcium phosphates to stably transfect human Bowes melanoma cells (HMCB; obtained from ATCC, Rockville, Md.), a cell line in which several Gαi-linked receptors are expressed at reasonable levels and are coupled to functional responses. Cells are maintained at 37° C. and 5% CO2 in Eagle's minimum essential medium with 0.1 mM non-essential amino acids, 1.0 mM sodium pyruvate and 25 mM HEPES which is supplemented with 10% fetal bovine serum (pH 7.3).",
  "data": [
    {"smiles": "NC(N)=NCCC[C@@H](NC(=O)C(c1ccccc1)c1ccccc1)C(=O)NCc1ccc(O)cc1", "note": "[BIBP3226]", "values": [
      {"measurement": "block of the endogenous NPY response", "value": "completely blocks"}
    ]}
  ]
}
